# Assay results taken from ChEMBL document CHEMBL5550109, “Synergistic therapeutics: Co-targeting histone deacetylases and ribonucleotide reductase for enhanced cancer treatment” (Eur J Med Chem, 2024).
# Molecular target: T1, Ribonucleoside-diphosphate reductase subunit M2 (Homo sapiens, UniProt P31350)
# T1 sequence (P31350 whole entry): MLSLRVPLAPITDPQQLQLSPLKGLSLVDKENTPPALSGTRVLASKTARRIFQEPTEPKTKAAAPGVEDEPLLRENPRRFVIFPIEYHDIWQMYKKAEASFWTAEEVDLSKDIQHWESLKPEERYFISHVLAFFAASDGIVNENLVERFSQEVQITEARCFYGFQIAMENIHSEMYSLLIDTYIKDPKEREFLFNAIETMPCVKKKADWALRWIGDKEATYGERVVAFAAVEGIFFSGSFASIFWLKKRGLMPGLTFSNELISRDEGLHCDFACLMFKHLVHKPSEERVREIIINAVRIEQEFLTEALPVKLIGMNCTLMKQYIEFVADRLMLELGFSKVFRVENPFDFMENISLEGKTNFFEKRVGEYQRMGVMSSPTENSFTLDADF
# Assay: Inhibition of human recombinant RRM2
# Details: not given
row,IC50,Structure (SMILES)
1,601 µM,NC(=O)NO [HYDROXYUREA]

# Test system: HCT-116
# Assay: Growth inhibition of human HCT-116 cells
# Type: functional
# Details: pooled result: one value given for 3 cell lines, strains, targets or settings
row,Structure (SMILES),GI50
1,C/C(=N\Nc1nc(C)c(C(=O)NO)s1)c1ccc(Cl)cc1,> 50 µM
2,COc1cccc(/C=N/Nc2nc(C)c(C(=O)NO)s2)c1,> 50 µM
3,COc1ccc(/C=N/Nc2nc(C)c(C(=O)NO)s2)cc1,32.8 µM
4,Cc1nc(N/N=C/c2ccc([N+](=O)[O-])cc2)sc1C(=O)NO,40.7 µM
5,C/C(=N\Nc1nc(C)c(C(=O)NO)s1)c1ccccc1,> 50 µM
6,Cc1nc(N/N=C/c2ccccc2O)sc1C(=O)NO,36.7 µM

# Further lines, results first:
row,GI50,Structure (SMILES)
1,21.6 µM,Cc1nc(N/N=C/c2ccc(Cl)cc2)sc1C(=O)NO
2,23.9 µM,Cc1nc(N/N=C/c2ccccc2)sc1C(=O)NO
3,20.8 µM,Cc1nc(N/N=C/c2ccc(N(C)C)cc2)sc1C(=O)NO
